# Source: US20220348590A1, “CYCLOOXYGENASE-2 INHIBITORS AND USES THEREOF” (The Board Institute, Inc., priority 2019, published 2022)
# Like-named read-outs stand apart in the source and are kept apart here.
# Molecular target: T1, human recombinant COX2 (hCOX2) (UniProt P35354)
# T1 sequence (P35354 1-604): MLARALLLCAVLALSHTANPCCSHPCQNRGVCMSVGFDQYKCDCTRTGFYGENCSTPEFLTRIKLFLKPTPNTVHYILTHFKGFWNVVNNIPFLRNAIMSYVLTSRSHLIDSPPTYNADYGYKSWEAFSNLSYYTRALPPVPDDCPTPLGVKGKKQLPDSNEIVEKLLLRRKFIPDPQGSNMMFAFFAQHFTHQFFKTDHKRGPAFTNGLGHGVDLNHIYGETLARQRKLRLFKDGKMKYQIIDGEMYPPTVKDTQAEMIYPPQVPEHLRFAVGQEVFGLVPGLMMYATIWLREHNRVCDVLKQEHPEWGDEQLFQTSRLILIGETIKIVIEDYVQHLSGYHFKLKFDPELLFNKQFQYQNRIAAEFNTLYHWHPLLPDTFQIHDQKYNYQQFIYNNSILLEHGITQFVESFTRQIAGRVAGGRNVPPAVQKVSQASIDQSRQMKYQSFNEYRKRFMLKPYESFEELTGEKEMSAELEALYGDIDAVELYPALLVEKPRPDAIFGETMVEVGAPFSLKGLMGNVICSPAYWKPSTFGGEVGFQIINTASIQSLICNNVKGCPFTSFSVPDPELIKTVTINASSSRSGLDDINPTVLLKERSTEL
# Assay: LCMS-based COX2 enzymatic inhibition assay (PGE2 quantification)
# Format: biochemical
# Parameters: COX2 2 minutes pge2/pge2d4 area ratio Avg; other: 2 minutes; readout pge2/pge2d4 area ratio; average; COX2 2 minutes pge2/pge2d4 area ratio Avg; LLE; average LLE; COX2 2 minutes pge2 area (counts) Avg; readout pge2 area (counts); other: 2 min; "ovine COX2 (oCOX2), human recombinant COX2 (hCOX2)"
# Settings: for COX2 2 minutes pge2/pge2d4 area ratio Avg. LLE / COX2 2 minutes pge2 area (counts) Avg. LLE / COX2 10 minutes pge2 area (counts) Avg. LLE: average LLE; for IC50: average
# In short: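 PGE2 formed from arachidonic acid (final 5 μM, 2 min) was measured by LC-MS-MS against DMSO controls. Enzyme (oCOX-1 0.1 μg or hCOX2 0.2 μg) with hematin/epinephrine cofactors at pH 8.0 was given 10 min at 37 °C with compound first. Twelve-point curves run three times gave IC50.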
# [1] = 2 minutes, readout pge2/pge2d4 area ratio
# [2] = 2 minutes, readout pge2/pge2d4 area ratio, read-out: COX2 2 minutes pge2/pge2d4 area ratio Avg. IC50
# [3] = 2 minutes, readout pge2 area (counts)
# [4] = 2 minutes, readout pge2 area (counts), read-out: COX2 2 minutes pge2 area (counts) Avg. IC50
# [5] = 10 minutes, readout pge2 area (counts)
# [6] = 10 minutes, readout pge2 area (counts), read-out: COX2 10 minutes pge2 area (counts) Avg. IC50
SMILES,COX2 2 minutes pge2/pge2d4 area ratio Avg. LLE [1],IC50 [2] [nM],COX2 2 minutes pge2 area (counts) Avg. LLE [3],IC50 [4] [nM],COX2 10 minutes pge2 area (counts) Avg. LLE [5],IC50 [6] [nM]
CS(=O)(=O)c1ccc(-c2ccc3ccn(-c4ccccc4)c3n2)cc1 [Compound 146],2.102,248,2.132,201,–,–
CS(=O)(=O)c1ccc(-c2cncc(OCc3nccs3)n2)cc1 [Compound 147],4.543,250,4.9085,113,–,–
CS(=O)(=O)c1ccc(-c2cncc(SCc3ccon3)n2)cc1 [Compound 148],5.484,268,5.518,255,–,–
COc1ccc(NCc2ccco2)nc1-c1ccc(S(C)(=O)=O)cc1 [Compound 149],4.057,272,4.033,285,–,–
CS(=O)(=O)c1ccc(-c2cccc(NCc3ccon3)n2)cc1 [Compound 150],5.05,276,5.0953,249,–,–
"CS(=O)(=O)c1ccc(-n2ccc3ccc(C(=O)c4cccs4)nc32)cc1 [Compound 151, [1-(4-methylsulfonylphenyl)pyrrolo[2,3-b]pyridin-6-yl]-(2-thienyl)methanone]",–,293,–,233,–,–
COc1ncc(NCc2ccon2)nc1-c1ccc(S(C)(=O)=O)cc1 [Compound 152],6.031,297,6.197,174,–,–
CS(=O)(=O)c1ccc(-c2cncc(OCc3ccns3)n2)cc1 [Compound 153],5.153,304,5.323,195,–,–
CS(=O)(=O)c1ccc(-c2ccc3ncn(Cc4cccs4)c3n2)cc1 [Compound 155],2.321,320,2.324,317,–,–
COc1nc(NCc2cccs2)cc(-c2ccc(S(C)(=O)=O)cc2)n1 [Compound 156],3.208,332,3.204,327,4.189,35.5
C[S+]([O-])c1ccc(-c2cccc(OCc3cccs3)n2)cc1 (stereo not shown) [Compound 157],3.382,350,3.281,428,–,–
COc1ccc(-c2ccc(S(C)(=O)=O)nc2)nc1NCc1cccs1 [Compound 158],3.956,359,3.972,349,–,–
CS(=O)(=O)c1ccc(-c2nc(NCc3cccs3)cnc2C#N)cc1 [Compound 159],4.781,361,4.751,381,–,–
COc1ccc(-c2ccc(S(C)(=O)=O)cc2)nc1NCc1cccs1 [Compound 160],3.162,385,3.174,361,–,–
CS(=O)(=O)c1ccc(-c2cncc(NCc3ccco3)c2)cc1 [Compound 161],–,388,–,337,–,–
COc1ncc(NCc2cncs2)nc1-c1ccc(S(C)(=O)=O)cc1 [Compound 163],4.491,409,4.597,319,–,–
CS(=O)(=O)c1ccc(-c2ncc3ncn(Cc4cccs4)c3n2)cc1 [Compound 164],2.595,411,2.638,368,3.534,50.3
CS(=O)(=O)c1ccc(-c2cnc(N)c(NCc3cccs3)n2)cc1 [Compound 165],4.592,425,4.629,391,–,–
COc1ncc(NCc2cccnc2)nc1-c1ccc(S(C)(=O)=O)cc1 [Compound 166],5.259,427,5.249,380,–,–

SMILES,COX2 2 minutes pge2/pge2d4 area ratio Avg. LLE [1],IC50 [2] [nM],COX2 2 minutes pge2 area (counts) Avg. LLE [3],IC50 [4] [nM],COX2 10 minutes pge2 area (counts) Avg. LLE [5],IC50 [6] [nM]
CS(=O)(=O)c1ccc(-c2cnc(C#N)c(NCc3cccs3)n2)cc1 [Compound 169],–,442,–,294,–,59.1
CS(=O)(=O)c1ccc(-c2nncc(NCc3cccs3)n2)cc1 [Compound 171],4.364,447,4.345,452,–,–
CS(=O)(=O)c1ccc(-c2cncc(OCc3ccccc3)n2)cc1 [Compound 172],4.174,447,4.01,520,–,–
C[C@@H](Nc1cncc(-c2ccc(S(C)(=O)=O)cc2)n1)c1cccs1 [Compound 173],3.7158,452,3.9817,326,4.808,38.4
CS(=O)(=O)c1ccc(-c2cncc(NCc3ccoc3)c2)cc1 [Compound 174],–,484,–,481,–,–
CS(=O)(=O)c1ccc(-c2cccc(NCc3ccno3)n2)cc1 [Compound 175],4.7843,508,4.685,638,–,–
CS(=O)(=O)c1ccc(-c2cnc3ccn(Cc4nccs4)c3n2)cc1 [Compound 176],3.19,532,3.2105,520,–,–
CC(C)CNc1cncc(-c2ccc(S(C)(=O)=O)cc2)n1 [Compound 178],4.69,544,4.636,608,5.429,119
COc1cc(S(C)(=O)=O)ccc1-c1cncc(NCc2cccs2)n1 [Compound 179],4.286,546,4.322,387,–,–
CS(=O)(=O)c1ccc(-c2cncc(NC3CCCCC3)n2)cc1 [Compound 180],3.95,555,3.961,514,–,–
Cn1ccc(COc2cncc(-c3ccc(S(C)(=O)=O)cc3)n2)n1 [Compound 181],5.19,559,5.2357,525,–,–
COc1ncc(NCc2ccncc2)nc1-c1ccc(S(C)(=O)=O)cc1 [Compound 182],5.042,559,5.147,415,–,–
COc1ncc(NCc2ccno2)nc1-c1ccc(S(C)(=O)=O)cc1 [Compound 183],5.678,566,5.655,596,–,–
CS(=O)(=O)c1ccc(-n2cnc3ccc(NCc4cccs4)nc32)cc1 [Compound 184],–,570,–,457,–,–
CS(=O)(=O)c1ccc(-c2cccc(NCc3cc[nH]c3)n2)cc1 [Compound 185],3.623,610,3.623,572,–,–
CS(=O)(=O)c1ccc(-n2ccc3ccc(/C(=N\O)c4cccs4)nc32)cc1 [Compound 187],–,629,–,635,–,–
Cn1ccc(CNc2cccc(-c3ccc(S(C)(=O)=O)cc3)n2)n1 [Compound 188],4.275,652,4.373,546,–,–
COCc1ccc(-c2ccc(S(C)(=O)=O)cc2)nc1NCc1cccs1 [Compound 189],2.767,656,2.661,839,–,–
